US6150414A, “Compositions and methods for treating viral infections” (priority 1992, dated 2000)
Where “and” joins values, the source holds several entries; their conditions need not be identical. Equal values may be shown once. Read-outs that look alike come from different tables or passages of the source.

Legend:
[1] = test system: Friend Leukemia Virus; assay: Inhibition of Friend Leukemia Virus-induced splenomegaly in mice, compounds intraperitoneally 24 hours after virus (Example 1(a)); format: in vivo, BALB/c mice; parameters: Actual Spleen Weight / Average Spleen Weight: unit not given here; conditions: Table III; for inhibition in vivo at 0.1 mg / inhibition in vivo at 0.05 mg / inhibition in vivo at 0.2 mg: Mus musculus, ip; for Actual Spleen Weight: single animal; for Pooled Average % Inhibition: pooled over 50, 100, 200, 2 × 100 micrograms
Description: The effects of compositions according to the present invention on infection of mammals with Friend Leukemia Virus (FV) were examined.
Friend Leukemia Virus is an aggressive retrovirus which induces an acute erythroleukemia in sensitive strains of mice such as BALB/c and NIH swiss mice as described in Friend, C. J., Exp. Med. 105: 307-324, 1957; Friend, C. et al. Proc. Natl. Acad. Sci. USA 68: 378-383, 1971; Friend, C. et al. Natl. Cancer Inst. Mongr. 22: 508-552, 1966. The malignant transformation is the result of the combined activities of the Spleen Focus Forming Virus (SFFV) and the ecotropic Murine Friend Leukemia Helper Virus (F-MuLV). The acute erythroleukemia is characterized by hepatosplenomegaly (a marked increase in the size of the spleen and liver) and a severe anemia.
Friend Leukemia Virus was prepared by homogenizing the enlarged spleen of a mouse previously infected with FV, 10 days after intravenous virus injection. The spleen was homogenized in phosphate buffered saline in a volume equal to ten times the weight of the isolated spleen.
The effects of compositions according to the present invention on the increase in spleen size (splenomegaly) of BALB/c mice (Jackson Labs, Bar Harbor, ME) was examined. In these experiments, the virus (10^6 focus forming units--FFU) was inoculated intravenously and 100 micrograms of the compounds indicated in Table II were administered to the mice intraperitoneally 24 hours later. Each compound was administered once to two mice. The animals were sacrificed ten days later and their spleens weighed.
The present assay has been developed from similar assays using hypericin or pseudohypericin and employing higher numbers of experimental animals per group (e.g. 4 animals). It was discovered however that the specificity and sensitivity of this assay are such that an experimental group of two animals is of more than adequate predictive value.
As used in Table II (and subsequent Tables of this Example l(a) and (b), "average percent inhibition" is calculated as follows: [formula] wherein "ASWNC" designates "average spleen weight of negative control"; "ASWE" designates "average spleen weight of experimental (treated) subject"; and "ASWPC" designates "average spleen weight of positive control". Average spleen weight is the numerical average of spleen weights of each experimental group (in Table II each such group includes two members).
In these experiments, the virus (10^6 focus forming units--FFU) was inoculated intravenously, and the indicated doses of the antiviral compounds of this invention were administered to the BALB/c mice intraperitoneally 24 hours later. The animals were then sacrificed ten days later and their spleens weighed.
Pseudohypericin was diluted in phosphate buffered saline with 1% ethanol.
An expanded series of experiments was next performed in which various concentrations (i.e. 50, 100, 200 and 2×100, i.e., 100 micrograms administered twice) of a different set of PAC compounds (numbers 16-29 and 30-36 in Table III below) were administered intraperitoneally each according to the same protocol described above. Compounds 16-29 all had 3-5 fused, aromatic rings and no side groups except for oxygen or hydroxyl groups, whereas compounds 30-36 all had 3 fused aromatic rings and side chains selected from the group of oxygen, hydroxyl and methyl.
When 2 doses of the compounds were given, the second dose was administered 24-48 hours after the first injection. The animals were infected and splenomegaly determined as above for the compounds in Table II. In Table III, "pooled average percent inhibition" is calculated by adding the average percent inhibition for each experiment with the same compound and dividing the sum by the number of experiments (i.e. the number 4). […]

[2] = test system: retroviruses (virions); assay: Direct inactivation of retroviruses (virions) in vitro (Example 10); format: biochemical, Radiation Leukemia Virus; conditions: Table IX
Protocol: Supernatants (10 ml/tube) from B10.T(6R) cells (Meruelo et al. J. Exp. Med. 147: 470-487, 1978) chronically infected with Radiation Leukemia Virus (RadLV) were obtained by centrifugation of cells in culture at 4° C., 3500 rpm for 15 minutes. The top 2/3 of the supernatant were removed and aliquots were incubated for 30 minutes on ice with the indicated amounts of hypericin or protohypericin. […] Thereafter, supernatants were centrifuged at 100,000×g using a TI70 rotor (Beckman Instruments) for 1 hour at 4° C. The pellet was […] and analyzed for reverse transcriptase activity as follows.
The reverse transcriptase assay was performed in a volume of 100 microliters containing the following components:
(1) Direct inactivation of retroviruses in vitro, performed as in Example 3 above;
The results presented above in Table IX are presented as EC50 concentrations. These are the effective concentrations which inhibit 50% of the viruses in micromolar concentrations.

[3] = read-out: Average Perdosage % Inhibition, dose 2 × 100 (micrograms) i.p.
[4] = read-out: Average Perdosage % Inhibition, dose 50 (micrograms) i.p.
[5] = read-out: Average Perdosage % Inhibition, dose 100 (micrograms) i.p.
[6] = read-out: Average Perdosage % Inhibition, dose 200 (micrograms) i.p.
[7] = dose 2 × 100 (micrograms) i.p., second dose 24-48 hours later
[8] = dose 2 × 100 (micrograms) i.p., read-out: Average Perdosage % Inhibition
[9] = dose 50 (micrograms) i.p., read-out: Average Perdosage % Inhibition
[10] = dose 100 (micrograms) i.p., read-out: Average Perdosage % Inhibition
[11] = dose 200 (micrograms) i.p., read-out: Average Perdosage % Inhibition

Molecule | inhibition in vivo at 0.1 mg [1, 3] [%] | inhibition in vivo at 0.05 mg [1, 4] [%] | inhibition in vivo at 0.1 mg [1, 5] [%] | inhibition in vivo at 0.2 mg [1, 6] [%] | Actual Spleen Weight [1, 7] | Average Spleen Weight ([1]; dose 2 × 100 (micrograms) i.p.) | Average Spleen Weight ([1]; dose 50 (micrograms) i.p.) | Average Spleen Weight ([1]; dose 100 (micrograms) i.p.) | Average Spleen Weight ([1]; dose 200 (micrograms) i.p.) | Actual Spleen Weight ([1]; dose 200 (micrograms) i.p.) | Pooled Average % Inhibition [1] [%] | inhibition in vivo at 0.1 mg [1, 8] [%] | inhibition in vivo at 0.05 mg [1, 9] [%] | inhibition in vivo at 0.1 mg [1, 10] [%] | inhibition in vivo at 0.2 mg [1, 11] [%] | also measured
C=Cc1c2ccccc2cc2ccccc12 [Compound 29, 9-Vinylanthracene] | 15 | 4 | 26 | 21 | 1.3747 | 1.3747 | 1.6517 | 1.2199 | 1.2933 | 1.2933 | 14 |  |  |  |  | 
O=c1c2ccccc2oc2ccccc12 [Compound 31, Xanthone] | 62 | 57 | 58 | 60 |  | 0.9003 | 1.0006 | 0.9806 | 0.9431 |  | 59 |  |  |  |  | 
O=C1c2ccc(O)cc2C(=O)c2ccc(O)cc21 [Compound 32, Anthraflavic acid] |  |  |  |  |  | 0.9325 | 1.5718 | 1.1542 | 0.8593 |  | 50 | 60 | 26 | 49 | 64 | 
O=C1c2ccccc2C(=O)C1c1ccccc1 [Compound 33, 2-phenyl-1,2 inadione] |  |  |  |  |  | 0.9127 | 0.9410 | 1.7763 | 0.7938 |  | 51 | 61 | 60 | 16 | 68 | 
Cc1cc(O)c2c(c1)C(=O)c1cc(O)cc(O)c1C2=O [Compound 34, Emodin] |  |  |  |  |  | 1.2834 | 1.2914 | 1.1333 | 1.6902 |  | 38 | 42 | 41 | 50 | 20 | EC50 [2]: > 37 µM
Phenylanthracene [Compound 18] |  |  |  |  | 1.4116 and 1.0222 | 1.2169 | 1.1803 | 1.554 | 1.3296 | 1.3797 and 1.2794 | 19 |  |  |  |  | Average Perdosage % Inhibition ([1]; dose 2 × 100 (micrograms) i.p.): 26%; Average Perdosage % Inhibition ([1]; dose 50 (micrograms) i.p.): 28%; Actual Spleen Weight ([1]; dose 50 (micrograms) i.p.): 1.1141 and 1.2464; Average Perdosage % Inhibition ([1]; dose 100 (micrograms) i.p.): 3%; Actual Spleen Weight ([1]; dose 100 (micrograms) i.p.): 1.6206 and 1.4902; Average Perdosage % Inhibition ([1]; dose 200 (micrograms) i.p.): 18%
